According to US8440654B2, “Thieno- and furo-pyrimidine modulators of the histamine H4 receptor” (Janssen Pharmaceutica NV, priority 2007, dated 2013):
Structures can show the parent of a compound that is named as a salt.

target: T1, human histamine H4 receptor (Homo sapiens, UniProt Q9H3N8); experiment: Binding Assay on Recombinant Human Histamine H4 Receptor; conditions: competition binding with 3H-histamine, membranes of SK-N-MC or COS7 cells transfected with human H4R; average of results obtained
T1 construct: expressed in transfected cells; host or cells: SK-N-MC cells or COS7 cells, transiently transfected with pH4R; membrane preparation
T1 sequence (Q9H3N8 whole entry): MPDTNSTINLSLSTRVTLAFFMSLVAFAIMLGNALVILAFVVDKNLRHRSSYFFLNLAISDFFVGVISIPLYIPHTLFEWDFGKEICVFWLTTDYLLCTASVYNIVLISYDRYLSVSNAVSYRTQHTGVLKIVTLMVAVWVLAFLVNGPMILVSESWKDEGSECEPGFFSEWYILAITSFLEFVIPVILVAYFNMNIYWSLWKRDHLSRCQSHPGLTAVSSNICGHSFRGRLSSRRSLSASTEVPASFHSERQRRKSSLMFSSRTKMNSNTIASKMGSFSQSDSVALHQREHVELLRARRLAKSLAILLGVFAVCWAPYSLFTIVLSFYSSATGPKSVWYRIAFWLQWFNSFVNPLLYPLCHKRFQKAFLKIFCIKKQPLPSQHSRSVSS
Protocol: Biological Methods: Binding Assay on Recombinant Human Histamine H4 Receptor.
SK-N-MC cells or COS7 cells were transiently transfected with pH4R and grown in 150 cm^2 tissue culture dishes. Cells were washed with saline solution, scraped with a cell scraper and collected by centrifugation (1000 rpm, 5 min). Cell membranes were prepared by homogenization of the cell pellet in 20 mM Tris-HCl with a polytron tissue homogenizer for 10 sec at high speed. Homogenate was centrifuged at 1000 rpm for 5 min at 4° C. The supernatant was then collected and centrifuged at 20,000×g for 25 min at 4° C. The final pellet was resuspended in 50 mM Tris-HCl. Cell membranes were incubated with ^3H-histamine (5-70 nM) in the presence or absence of excess histamine (10,000 nM). Incubation occurred at room temperature for 45 min. Membranes were harvested by rapid filtration over Whatman GF/C filters and washed 4 times with ice-cold 50 mM Tris HCl. Filters were then dried, mixed with scintillant and counted for radioactivity. SK-N-MC or COS7 cells expressing human histamine H4 receptor were used to measure the affinity of binding of other compounds and their ability to displace ^3H-ligand binding by incubating the above-described reaction in the presence of various concentrations of inhibitor or compound to be tested. For competition binding studies using ^3H-histamine, K values were calculated, based on an experimentally determined KD value of 5 nM and a ligand concentration of 5 nM, according to Y.-C.

Point of comparison: `Nc1nc(N2C[C@H]3CCCN[C@H]3C2)c2sc3c(c2n1)CCCC3` [Example 32, 4-[(4aR,7aR)-Octahydro-6H-pyrrolo[3,4-b]pyridin-6-yl]-6,7,8,9-tetrahydro[1]benzo-thieno[3,2-,d]pyrimidin-2-amine], Ki 2 nM. Against it:
- CN1CCN(c2nc(N)nc3c4c(oc23)CCCC4)CC1 [Example 5, 4-(4-Methyl-piperazin-1-yl)-6,7,8,9-tetrahydro-benzo[4,5]furo[3,2-d]pyrimidin-2-ylamine] — 4-fold higher, 8 nM
- Nc1nc(N2CCN3CCCCC3C2)c2sc3c(c2n1)CCCC3 (stereo not shown) [Example 53, 4-(Octahydro-2H-pyrido[1,2-a]pyrazin-2-yl)-6,7,8,9-tetrahydro[1]benzothieno-3,2-d]pyrimidin-2-amine trifluoroacetic acid salt] — 190-fold higher, 387 nM
- CC(C)(C)c1cc2nc(N)nc(N3CC4CCCNC4C3)c2s1 (stereo not shown) [Example 19, 6-tert-Butyl-4-(octahydro-6H-pyrrolo[3,4-b]pyridin-6-yl)thieno[3,2-d]pyrimidin-2-amine trifluoroacetic acid salt] — 120-fold higher, 244 nM
- Nc1nc(N2CC[C@@H](N)C2)c2sc3c(c2n1)CC(F)(F)CC3 [Example 113, 4-[(3R)-3-Aminopyrrolidin-1-yl]-8,8-difluoro-6,7,8,9-tetrahydro[1]benzothieno[3,2-d]pyrimidin-2-amine hydrochloride] — 1.8-fold lower, 1.1 nM
- 4-[(1S,4S)-2,5-Diazabi- cyclo]2.2.1-2-yl]hept-2-yl]- 6,7,8,9-tetrahydro[1]benzo- thieno[3,2-d]pyrimidin-2- amine [Example 35] — 210-fold higher, 417 nM
- Nc1nc(N2CC(N)C2)c2oc3c(c2n1)CCCC3 [Example 23, 4-(3-Aminoazetidin-1-yl)-6,7,8,9-tetrahydro[1]benzo-furo[3,s-d]pyrimidin-2-amine trifluoroacetic acid salt] — 42-fold higher, 83 nM
- CC1CCc2sc3c(N4C[C@H]5CCCN[C@H]5C4)nc(N)nc3c2C1 (stereo partly drawn) [Example 45, 8-Methyl-4-[(4aR,7aR)-octa-hydro-6H-pyrrolo-[3,4-b]pyridin-6-yl]-6,7,8,9-tetra-hydro[1]benzothieno[3,2-d]pyrimidin-2-amine trifluoroacetic acid salt] — 2-fold higher, 4 nM
- Nc1nc(N2C[C@H]3CNC[C@H]3C2)c2sc3c(c2n1)CCCC3 [Example 33] — 200-fold higher, 390 nM
- CN1CCN(c2nc(N)nc3c4c(sc23)CCC(F)(F)C4)CC1 [Example 57, 8,8-Difluoro-4-(4-methyl-piperazin-1-yl)-6,7,8,9-tetrahydro[1]benzothieno[3,2-d]pyrimidin-2-amine trifluoroacetic acid salt] — 12-fold higher, 23 nM
- CCN1CCN(c2nc(N)nc3c4c(sc23)CCCC4)CC1 [Example 51, 4-(4-Ethylpiperazin-1-yl)-6,7,8,9-tetrahydro[1]benzo-thieno[3,2-d]pyrimidin-2-amine trifluoroacetic acid salt] — 100-fold higher, 205 nM
- CN(CCN)c1nc(N)nc2c3c(oc12)CCC(F)(F)C3 [Example 125, N^4-(2-Aminoethyl)-8,8-difluoro-N^4-methyl-6,7,8,9-tetrahydro[1]benzofuro[3,2-d]pyrimidine-2,4-diamine (free amine)] — 75-fold higher, 150 nM
- CN[C@@H]1CCN(c2nc(N)nc3c4c(oc23)CCC(C)(C)C4)C1 [Example 137, 8,8-Dimethyl-4-[(3R)-3-(methylamino)pyrrolidin-1-yl]-6,7,8,9-tetrahydro[1]benzofuro[3,2-d]pyrimidin-2-amine hydrochloride] — 9-fold higher, 18 nM
- CN(CCN)c1nc(N)nc2c3c(sc12)CCC(F)(F)C3 [Example 115, N^4-(2-Aminoethyl)-8,8-difluoro-N^4-methyl-6,7,8,9-tetrahydro[1]benzothieno[3,2-d]pyrimidine-2,4-diamine trifluoroacetate] — 10-fold higher, 21 nM
- Nc1nc(N2CCNCC2)c2oc3c(c2n1)CC(F)(F)CC3 [Example 118, 8,8-Difluoro-4-piperazin-1-yl-6,7,8,9-tetrahydro[1]benzofuro[3,2-d]pyrimidin-2-amine hydrochloride] — 14-fold higher, 29 nM
- Nc1nc(N2CC[C@H](N)C2)c2oc3c(c2n1)CC(F)(F)CC3 [Example 126, 4-[(3S)-3-Aminopyrrolidin-1-yl]-8,8-difluoro-6,7,8,9-tetrahydro[1]benzofuro[3,2-d]pyrimidin-2-amine hydrochloride] — 3-fold higher, 6.1 nM
- CN(C)[C@@H]1CCN(c2nc(N)nc3c4c(sc23)CCCC4)C1 [Example 39, 4-[(3R)-3-(Dimethyl-amino)pyrrolidin-1-yl]-6,7,8,9-tetrahydro[1]benzo-thieno[3,2-d]pyrimidin-2-amine trifluoroacetic acid salt] — 31-fold higher, 62 nM
- Nc1nc(N2CCC(N)C2)c2sc3c(c2n1)CCCC3 (stereo in doubt) [Example 56, 4-[(3R)-3-Aminopyrrolidin-1-yl]-6,7,8,9-tetrahy-dro[1]benzothieno[3,2-d]pyrimidin-2-amine trifluoracetic acid salt] — 5-fold higher, 10 nM
- CN1CCN(c2ncnc3c4c(oc23)CCCC4)CC1 [Example 8, 4-(4-Methyl-piperazin-1-yl)-6,7,8,9-tetrahydro-benzo[4,5]furo[3,2-d]pyrimidine] — 26-fold higher, 53 nM
- Nc1nc(N2CCNCC2)c2sc3c(c2n1)CCCC3 [Example 3, 4-piperazin-1-yl-6,7,8,9-tetrahydro-benzo[4,5]thieno[3,2-d]pyrimidin-2-ylamine] — 12-fold higher, 23 nM
- Nc1nc(N2CC[C@@H](N)C2)c2oc3c(c2n1)CCCC3 [Example 24, 4-[(3R)-3-Aminopyrrolidin-1-yl-6,7,8,9-tetra-hydro[1]benzofuro[3,2-d]pyrimidin-2-aminetrifluoroacetic acid salt] — the same, 2 nM
- CNC1CCN(c2nc(N)nc3c(C)csc23)C1 (stereo in doubt) [Example 12, 7-Methyl-4-[(3R)-3-(methylamino)pyrrolidin-1-yl]thieno[3,2-d]pyrimidin-2-amine] — 91-fold higher, 182 nM
- CCNC1CCN(c2nc(N)nc3c4c(sc23)CCCC4)C1 (stereo in doubt) [Example 40, 4-[(3R)-3-(Ethyl-amino)pyrrolidin-1-yl]-6,7,8,9-tetrahydro[1]benzo-thieno[3,2-d]pyrimidin-2-amine trifluoroacetic acid salt] — 250-fold higher, 503 nM
- CN1C[C@@H]2CN(c3nc(N)nc4c5c(sc34)CCC(F)(F)C5)C[C@@H]2C1 [Example 121, 8,8-Difluoro-4-[(3aR,6aS)-5-methylhexahydropyrrolo[3,4-c]pyrrol-2(1H)-yl]-6,7,8,9-tetrahydro[1]benzothieno[3,2-d]pyrimidin-2-amine (free amine)] — 75-fold higher, 150 nM
- NC[C@H]1CCN(c2nc(N)nc3c4c(sc23)CCCC4)C1 [Example 41, 4-[(3R)-3-(Amino-methyl)pyrrolidin-1-yl]-6,7,8,9-tetrahydro[1]benzo-thieno[3,2-d]pyrimidin-2-amine trifluoroacetic acid salt] — 500-fold higher, 1010 nM
- CN1CCN(c2nc(N)nc3cc(C(C)(C)C)sc23)CC1 [Example 15, 6-tert-Butyl-4-(4-methyl-piperazin-1-yl)thieno[3,2-d]pyrimidin-2-amine trifluoroacetic acid salt] — 140-fold higher, 286 nM
- CC(C)N1CCN(c2nc(N)nc3c4c(sc23)CCCC4)CC1 [Example 50, 4-[4-(1-Methylethyl)piper-azin-1-yl]-6,7,8,9-tetrahy-dro[1]benzothieno[3,2-d]pyrimidin-2-amine trifluoroacetic acid salt] — 320-fold higher, 647 nM
- Nc1nc(N2CC3CCC(C2)N3)c2oc3c(c2n1)CCCC3 [Example 26, 4-(3,8-Diazabi-cyclo[3.2.1]oct-3-yl)-6,7,8,9-tetrahydro[1]benzofuro[3,2-d]pyrimidin-2-amine] — 16-fold higher, 32 nM
- CN[C@H]1CCN(c2nc(N)nc3c4c(sc23)CCC(C)C4)C1 (stereo partly drawn) [Example 44, 8-Methyl-4-[(3R)-3-(methyl-amino)pyrrolidin-1-yl]-6,7,8,9-tetrahydro[1]benzo-thieno[3,2-d]pyrimidin-2-amine trifluoroacetic acid salt] — 5.5-fold higher, 11 nM
- Nc1nc(N2CC(N)C2)c2sc3c(c2n1)CC(F)(F)CC3 [Example 120, 4-(3-Aminoazetidin-1-yl)-8,8-difluoro-6,7,8,9-tetrahydro[1]benzothieno[3,2-d]pyrimidin-2-amine (free amine)] — 85-fold higher, 170 nM
- NCCNc1nc(N)nc2c3c(sc12)CCC(F)(F)C3 [Example 128, N^4-(2-Aminoethyl)-8,8-difluoro-6,7,8,9-tetrahydro[1]benzothieno[3,2-d]pyrimidine-2,4-diamine hydrochloride] — 75-fold higher, 150 nM
- Cc1csc2c(N3CCN(C)CC3)nc(N)nc12 [Example 13, 7-Methyl-4-(4-methyl-piperazin-1-yl)thieno-amine trifluoroacetic acid salt] — 290-fold higher, 574 nM
- CN[C@H]1CCN(c2nc(N)nc3c4c(sc23)CCC(F)(F)C4)C1 [Example 112, 8,8-Difluoro-4-[(3S)-3-(methylamino)pyrrolidin-1-yl]-6,7,8,9-tetrahydro[1]benzothieno[3,2-d]pyrimidin-2-amine trifluoroacetate] — 3-fold higher, 6 nM
- Nc1nc(N2CCC[C@H](N)C2)c2sc3c(c2n1)CCCC3 [Example 34, 4-[(3S)-3-Aminopiperidin-1-yl]-6,7,8,9-tetrahydro[1]ben-zothieno[3,2-d]pyrimidin-2-amine] — 62-fold higher, 123 nM
